Experimental data: patent US11744844B2, “Selective estrogen receptor degraders” (Eli Lilly and Company, priority 2021, dated 2023)
Structures can show the parent of a compound that is named as a salt.

Tests used:
[1] = tested on: MCF7 ESR1 Y537N mutant cells; test: Cell proliferation assay in MCF7-ESR1 Y537N-682; assay type: cell-based; settings: Homo sapiens, 168 h; MCF7-ESR1 Y537N-682, seven days; read-out: Relative IC50 MCF7 ESR1 Y537N mutant cells, cell proliferation
Method: The purpose of the following cell proliferation assays generally is to detect whether a test compound has effects on cell proliferation.
Seed MCF7 (purchased from ATCC HTB-22) cells at a density of 2,000 cells per well in DMEM phenol red free media 10% FBS (20 μL volume) (charcoal stripped) into a clear bottom 384-well cell culture plate. Plate MCF7-ESRY537N-682 (generated by CRISPR/Cas9 gene editing of ESr1 gene in MCF7 cells, clone #682) in DMEM media supplemented with 10% FBS, and 1% penicillin/streptomycin antibiotics at a density of 1000 cells per well. Incubate the plates at 37° C. and 5% CO2. The following day dose the cells with the test compound. Use an Echo 555 acoustic dispenser to prepare test compound serial dilutions (1:3) in a range from 60 μM to 0.003 μM. Dose the cells with the addition of 5 μL from the serial dilution plate to the cell plate, producing a final DMSO concentration of 0.2% with a final test compound concentration dose range between 20 and 0.001 μM. For the maximum point use media containing 0.2% of DMSO and for the minimum point use fulvestrant diluted at 2 μM final concentrations in the growth media containing 0.2% DMSO. After dosing with the test compound, incubate the cell plates at 37° C. and 5% CO2. […] Scan the plates with ACUMEN EXPLORER™ (Laser-scanning fluorescence microplate cytometer manufactured by TTP LABTECH LTD).

[2] = target: T1, ERα (Homo sapiens, UniProt P03372); test: PRα induction assay in MCF7 cells (ERα agonism); assay type: cell-based; settings: MCF7 breast cancer cells, 24 hours, up to 2 μM
T1 construct: measure the degradation of ERα by a test compound in an ERα positive breast cancer cell line such as MCF7; host or cells: MCF7
T1 sequence (P03372 1-595): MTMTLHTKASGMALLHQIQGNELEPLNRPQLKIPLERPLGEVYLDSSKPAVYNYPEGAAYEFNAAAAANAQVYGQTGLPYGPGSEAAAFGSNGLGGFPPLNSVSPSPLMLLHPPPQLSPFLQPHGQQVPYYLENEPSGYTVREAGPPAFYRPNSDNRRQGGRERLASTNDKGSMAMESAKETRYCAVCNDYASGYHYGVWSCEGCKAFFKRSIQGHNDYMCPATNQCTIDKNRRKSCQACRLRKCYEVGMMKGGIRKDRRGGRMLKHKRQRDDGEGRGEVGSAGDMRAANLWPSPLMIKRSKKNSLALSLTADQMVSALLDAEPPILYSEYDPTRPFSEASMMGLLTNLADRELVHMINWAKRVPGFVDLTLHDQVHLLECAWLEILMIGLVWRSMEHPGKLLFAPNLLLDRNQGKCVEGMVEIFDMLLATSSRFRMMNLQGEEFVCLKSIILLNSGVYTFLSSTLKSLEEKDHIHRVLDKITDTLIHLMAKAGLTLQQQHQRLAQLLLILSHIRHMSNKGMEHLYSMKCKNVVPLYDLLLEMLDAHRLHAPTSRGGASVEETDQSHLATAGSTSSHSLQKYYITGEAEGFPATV
Method: The purpose of the following PRα induction assay is to determine whether a test compound has agonistic activity against ERα receptor (an agonist would be expected to activate the receptor).
Culture MCF7 (purchased from ATCC HTB-22) in DMEM media supplemented with 10% FBS, 0.01 mg/mL human insulin 1 and 1% penicillin/streptomycin antibiotics and plate the cells (prior to becoming 70% confluent) in 384-well flat-bottom plates at a density of 4,000 cells per well in 20 μL volume in DMEM phenol red free media containing 10% FBS (charcoal stripped). Incubate the cells overnight in a cell culture incubator (5% CO2, 95% relative humidity at 37° C.) and allow the cells to attach to the plate. The following day dose the cells with test compound. Use an Echo 555 acoustic dispenser to prepare compound serial dilutions (1:3) in a range from 6 μM to 0.0003 μM. […]
The following day wash cells with PBS 0.05% TWEEN® 20 (2×20 μL) and incubate with secondary antibody (20 μL/well) (1:1000 dilution, Goat anti-rabbit IgM ALEXA FLUOR™ 488) in PBS 1% BSA for 105 minutes at room temperature. […] Scan plates with ACUMEN EXPLORER™ (Laser-scanning fluorescence microplate cytometer manufactured by TTP LABTECH LTD) to measure PRα. […]

| IC50 [1] | agonistic activity (PRα induction) [2] | SMILES |
| --- | --- | --- |
| 702 ± 389 nM | no significant agonistic activity | O=S(=O)(O)Oc1ccc2c3c(cnc2c1)-c1ccc(C(F)(F)F)cc1O[C@@H]3c1ccc(OCCN2CC(CF)C2)cc1 [Example 1, [(5R)-5-[4-[2-[3-(Fluoromethyl)azetidin-1-yl]ethoxy]phenyl]-8-(trifluoromethyl)-5H-chromeno[4,3-c]quinolin-2-yl]hydrogen sulfate] |
| 1500 ± 966 nM | no significant agonistic activity | O=C(O)[C@H]1O[C@@H](Oc2ccc3c4c(cnc3c2)-c2ccc(C(F)(F)F)cc2O[C@@H]4c2ccc(OCCN3CC(CF)C3)cc2)[C@H](O)[C@@H](O)[C@@H]1O [Example 2, (2S,3S,4S,5R,6S)-6-[[(5R)-5-[4-[2-[3-(Fluoromethyl)azetidin-1-yl]ethoxy]phenyl]-8-(trifluoromethyl)-5H-chromeno[4,3-c]quinolin-2-yl]oxy]-3,4,5-trihydroxy-tetrahydropyran-2-carboxylic acid] |
